The text below walks through data of US20090209585A1, “CYCLOALKENE DERIVATIVES, PROCESS FOR PRODUCTION OF THE DERIVATIVES, AND USE OF THE SAME” (priority 2006, published 2009).

One data set is described as follows: physchem. The following applies: saline, saline or isotonic.
Data set [1] has as its system Female BALB/c mice inoculated with LPS. The experiment in a line: Evaluation of efficacy in mouse endotoxin shock model. Type of data set: in vivo. The conditions noted are these: 10 mg/kg intravenously in saline, 1 hr before LPS 5 mg/kg intraperitoneally; survival at 5 days from LPS inoculation; 7 mice per group. The protocol:
Female BALB/c mice (6-week-old) were purchased and, after preliminary rearing for 1 week, divided into groups (7 per group). The compound of Example 3 was dissolved in saline immediately before administration, and intravenously administered at 10 mg/kg. For the control group, a solvent was administered in the same manner. One hour later, LPS (5 mg/kg) was intraperitoneally inoculated, and the survival of the mice was observed. The efficacy was evaluated based on the survival rate at 5 days from LPS inoculation.

A short description of data set [2]: Solubility according to Japanese Pharmacopoeia general notices, analyzed by HPLC. Type of data set: physicochemical. The following applies: thermodynamic from solid, treated according to Japanese Pharmacopoeia. The protocol:
The compounds of Examples 9, 12 and 15 were measured and placed in a glass container by 1 mg each, saline was added in small portions, and the mixture was stirred. The solubility was visually observed. In addition, as a conventional compound having a nitric oxide (NO) production inhibitory effect and an inflammatory cytokine production inhibitory effect, ethyl 6-[N-(2-chloro-4-fluorophenyl)sulfamoyl]cyclohex-1-ene-1-carboxylate (indicated as conventional compound in Table 1) was treated according to the Japanese Pharmacopoeia, general notices, and analyzed by HPLC to determined the solubility.

Values after ≈ are worked out from the molar mass of the structure shown. Where a name gives a salt, the structure may show the parent alone.

A word on the solubility: it is the concentration that dissolves in the medium under given conditions. Higher therefore signals much dissolved substance.

`CCOC(=O)C1=CCCCC1S(=O)(=O)N(Cc1cc(C)c(OC(=O)CNC)c(C)c1)c1ccc(F)cc1Cl` (stereo not shown) [Example 21, ethyl 6-[((2-chloro-4-fluorophenyl){3,5-dimethyl-4-[(N-methylglycyl)oxy]benzyl}amino)sulfonyl]cyclohex-1-ene-1-carboxylate hydrochloride]: in the data set “physchem”, the solubility is no less than 1000 µg/mL.
Regarding `CCOC(=O)C1=CCCCC1S(=O)(=O)N(COC(=O)OCCCC(=O)O)c1ccc(F)cc1Cl` (stereo not shown) [Example 3, sodium 4-({[((2-chloro-4-fluorophenyl){[2-(ethoxycarbonyl)cyclohex-2-en-1-yl]sulfonyl}amino)methoxy]carbonyl}oxy)butanoate], in data set [1], the “number of survived mice (N = 7)” value worked out at 6.
`CCOC(=O)C1=CCCCC1S(=O)(=O)N(Cc1cc(C)c(OC(=O)[C@@H]2CCCN2)c(C)c1)c1ccc(F)cc1Cl` (stereo partly drawn) [Example 23, 4-[((2-chloro-4-fluorophenyl){[2-(ethoxycarbonyl)cyclohex-2-en-1-yl]sulfonyl}amino)methyl]-2,6-dimethylphenyl L-prolinate] had a solubility in the data set “physchem” of no less than 1000 µg/mL.
In data set [2], `CCOC(=O)C1=CCCCC1S(=O)(=O)Nc1ccc(F)cc1Cl` (stereo not shown) [Conventional compound, ethyl 6-[N-(2-chloro-4-fluorophenyl)sulfamoyl]cyclohex-1-ene-1-carboxylate] yielded a solubility of 10 µg/mL (≈ 27.6 µM).
